The results in this text go back to US20220127297A1, “Novel Antibacterial 3"-Derivatives Of 4,6-Disubstituted 2,5-Dideoxystreptamine Aminoglycoside Antibiotics” (AGILeBiotics B.V., priority 2018, published 2022).

The test system of one data set is A. baumanii 195N (a). Briefly: MIC determination at Uppsala University. The format is cell-based. The settings on record: Acinetobacter baumannii, AAC(3)Ia, ANT(3″)Ia, APH(3″)Ib, APH(3′)VI, APH(6)Id. The text has this: (§1) 3.4.1 MIC Determination at Uppsala University (Sweden)
(§2) Tested reference compounds. Amikacin disulfate (Cat. No. A1774, Sigma Aldrich), Apramycin sulfate (Cat. No. A2024, Sigma Aldrich) and Gentamicin sulfate (Cat. No. G1914, Sigma Aldrich).
(§3) Bacterial strains/isolates. All assayed laboratory and clinical strains (P. aeruginosa PA01, A. baumanii ATCC 19606, A. baumanii 195N(a), A. baumanii 48F, E. coli C1162, E. coli C1181, M. morgannii S49 and P. stuartii B8-1) were from the IMI ND4BB ENABLE consortium strain collection. ATCC laboratory strains were acquired directly from the American Type Culture Collection. Clinical strains used were previously published (M Juhas, et al. J. Antimicrob. Chemother., 74 (4), 944-952 (2019); D. Hughes et al., Antimicrob. Agents Chemother., 47 (10), 3222-3232 (2003)) and were resistance genotyped within the ENABLE consortium.
(§4) Culture media and equipment. Water (Thermo Scientific, R05819); Mueller-Hinton II broth (BD Ref. 212322); sterile round-bottom 96-well plates (Thermo Scientific, 262162); Sensititre Nephelometer (ThermoFisher Scientific, V3011); 0.5 McFarland Standard (ThermoFisher Scientific, E1041); sterile polyester film (VWR, 391-1251).
(§5) Compound preparation. MIC assay procedure follows the CLSI M07 standard method (Clinical and Laboratory Standards Institute (CLSI); Methods for dilution antimicrobial susceptibility tests for bacteria that grow aerobically; approved standard—eleventh edition, M07-A10, Vol. 38, No. 2, 2018). Test compounds were received as solids and were dissolved in water to a concentration of 10 mg/mL of active compound. […] This solution was serially diluted in 2-fold steps in the first 10 columns of sterile round-bottom 96-well plates, while the final two columns were filled with Mueller-Hinton II broth without added compound for use as positive and negative growth controls.
(§6) Inoculum preparation. Inoculums were prepared by suspending several colonies freshly streaked culture of test strains in 5 mL of sterile 0.9% NaCl. The cell density of the inoculum solution was assessed and adjusted using a Sensititre Nephelometer and a 0.5 McFarland Standard. The inoculum was diluted 1:100 in Mueller-Hinton II broth and 50 μL of this inoculum solution was added to 50 μL of the test compound solutions yielding a concentration range of 64-0.125 μg/mL. The plates were sealed with sterile polyester film and stationarily incubated at 37° C. for 18 hours.
(§7) MIC determination. The MIC value was determined by visual inspection of bacterial growth within 96-well plates. The lowest concentration completely inhibiting growth was reported as the MIC for each strain and compound combination.

A further data set concerns A. baumanii 48F. Briefly: MIC determination at Uppsala University. The class given is cell-based. The settings on record: Acinetobacter baumannii; A. boumanii 48F; ANT(2″)Ia, APH(3″)-Ib, APH(3′)-VIa, APH(6)-Id.
Source text: as §1, §2, §3, §4, §5, §6, §7

The test system of another data set is P. stuartii B8-1. As to the kind of experiment: MIC determination at Uppsala University. The class given is cell-based. The settings on record: Providencia stuartii, B81, AAC(3)-Ic, ANT (3″)Ia, APH(3′)-IIa, APH(3′)-IIb, APH(3′)-VI, APH(6)-Ic.
Source text: as §1, §2, §3, §4, §5, §6, §7

The test system of the next data set is A. baumanii ATCC 19606. Briefly: MIC determination at Uppsala University. The class given is cell-based. The settings on record: Acinetobacter baumannii, ATCC19606, AMEs: WT.
Source text: as §1, §2, §3, §4, §5, §6, §7

The test system of a further data set is E. coli C1181. Briefly: MIC determination at Uppsala University. The class given is cell-based. The settings on record: Escherichia coli, ANT(3″)-Ia, APH(3′)-Ia.
Source text: as §1, §2, §3, §4, §5, §6, §7

In the next data set the test system is E. coli C1162. As to the kind of experiment: MIC determination at Uppsala University. The format is cell-based. The settings on record: Escherichia coli, APH(3′)-Ia.
Source text: as §1, §2, §3, §4, §5, §6, §7

Another data set deals with P. aeruginosa PAO1. As to the kind of experiment: MIC determination at Uppsala University. The format is cell-based. The settings on record: Pseudomonas aeruginosa, AMEs: WT.
Source text: as §1, §2, §3, §4, §5, §6, §7

Another data set has as its system M. morgannii S49. As to the kind of experiment: MIC determination at Uppsala University. The format is cell-based. The settings on record: Morganella morganii, AAC(3)-IId, ANT(3″), APH(3″)-Ib, APH(3′)-Ia, APH(6)-Id.
Source text: as §1, §2, §3, §4, §5, §6, §7

Data set [1] is described as follows: Maximum tolerated dose (MTD) / acute toxicity study, IV. The settings on record: for MTD at 4 days / LD50 at 4 days: male, CD (Sprague Dawley), rat, in vivo, iv; for LD50 at 4 days / LD50: rats, one-time IV dose over 15 min. The format is in vivo. As for the experimental part: 4.4 Maximum Tolerated Dose (MTD) Study in Male CD (Sprague Dawley) Rats.
The study was performed in an AAALAC I—approved Facility. The standard study plan relating to this study was reviewed by the Ethical Committee (CARE-Zagreb) as required by International Laws/Regulations and Croatian Low on Animal Welfare (“The Animal Protection Act”, Official Gazette, NN 37/13) and Animal Welfare Officer.
In vivo studies were performed by Fidelta (Zagreb, Croatia) and all rats (Sprague Dawley) were obtained from Charles River Laboratories (Italy). Three compounds, i.e. ABX5006, ABX5020 and ABX5039 were tested to determine the MTD of the test articles in male CD (Sprague Dawley) rats following a one-time dose (IV).
MTD study: Pathogen-free male CD (Sprague Dawley) rats (3 rats per dosing group) weighing 225-260 g were used. Five different dosing groups (50 mg/kg, 75 mg/kg, 100 mg/kg, 150 mg/kg and 200 mg/kg) were used and the test article was administered intravenous over 15 min (slow injection, 5 mL/kg). […] Clinical signs, body weight, food consumption and mortality was recorded during the in-life phase of the study. All animals surviving to the end of the 4 day monitoring period were euthanized on day 4. Terminal studies included gross necropsy and organ weight recording of all animals.
Supplies/Chemicals. Sterile, single used needles (25 G Microlance, REF300400, Becton Dickinson); 2 mL syringes (REF300185, Becton Dickinson); Phosphate buffered saline (P3813, Sigma Aldrich); isoflurane anesthesia (Abbott, Netherlands)
Anesthesia. Animals were deeply anaesthetized using isoflurane and subsequently exsangunated for full post mortem examination.

As usually defined, the MIC90 is an inhibitory concentration at the 90% level, which refers to growth in some studies and to a panel of isolates in others. As a reminder, the MTD is the largest dose that counted as tolerated. High values mean a wide tolerated range, low ones a narrow tolerated range. By LD50 is commonly meant the dose at which mortality reaches 50%. Read a high LD50 as a less toxic substance. For the compound `N=C(N)NC1C(O)[C@@H](CO)OC(OC2C(F)[C@H](O[C@H]3OC(CN)[C@@H](O)CC3N)C(N)C[C@H]2NC(=O)[C@@H](O)CCN)[C@@H]1O` (stereo partly shown) [ABX5006, Tobra-AHB-F-Gua], the MIC90 in the data set on A. baumanii 195N (a) turned out to be 4 µg/mL; in the data set with A. baumanii 48F, 4 µg/mL; in the data set on P. stuartii B8-1 it was 4 µg/mL; in the data set with A. baumanii ATCC 19606, 8 µg/mL; in the data set with E. coli C1181, 1 µg/mL; in the data set with E. coli C1162 it was 1 µg/mL. For the same compound, the MIC90 with P. aeruginosa PAO1 and in the data set with M. morgannii S49 was 1 µg/mL each time. In [1], this compound gave a maximal tolerated dose (MTD) at 4 days of 150 mg/kg. In data set [1], this compound returned an LD50 at 4 days above 200 mg/kg. For the same compound, the 50% lethal dose (LD50) in [1] is above 200 mg/kg.
Turning to `N=C(NC[C@@H]1CCCN1)NC1[C@@H](O)C(OC2[C@@H](F)[C@H](O[C@H]3OC(CN)[C@@H](O)CC3N)C(N)C[C@H]2NC(=O)[C@@H](O)CCN)O[C@H](CO)[C@H]1O` (stereo partly drawn) [ABX5026, Tobra-AHB-F-Gua (S) pyrrolidine-2-yl-methyl], the MIC90 is 8 µg/mL in the data set with A. baumanii 195N (a); 4 µg/mL in the data set with A. baumanii 48F; 2 µg/mL in the data set on P. stuartii B8-1; 8 µg/mL in the data set on A. baumanii ATCC 19606; 0.5 µg/mL with E. coli C1181; 1 µg/mL in the data set on E. coli C1162. Further, the results for the MIC90 in the data set on P. aeruginosa PAO1 and in the data set with M. morgannii S49 were 1 µg/mL and 2 µg/mL, respectively. In data set [1], the MTD at 4 days was determined as 75 mg/kg. This compound returned an LD50 at 4 days in data set [1] above 75 mg/kg.
Consider `N=C(NC[C@@H]1CCNC1)NC1[C@@H](O)C(OC2[C@@H](F)[C@H](O[C@H]3OC(CN)[C@@H](O)CC3N)C(N)C[C@H]2NC(=O)[C@@H](O)CCN)O[C@H](CO)[C@H]1O` (stereo partly drawn) [ABX5039, Tobra-AHB-F-Gua (R) pyrrolidine-3-ylmethyl], for which the MIC90 with A. baumanii 195N (a) turned out to be 4 µg/mL; with A. baumanii 48F, 4 µg/mL; with P. stuartii B8-1, 2 µg/mL; in the data set on A. baumanii ATCC 19606, 8 µg/mL; in the data set on E. coli C1181, 0.5 µg/mL; in the data set with E. coli C1162 it was 1 µg/mL. Moreover, the MIC90 in the data set on P. aeruginosa PAO1 and in the data set with M. morgannii S49 was 1 µg/mL throughout. The same compound gave an MTD at 4 days in [1] of 75 mg/kg. This compound yielded a median lethal dose (LD50) at 4 days in [1] above 75 mg/kg. Besides, the 50% lethal dose (LD50) in [1] fell in the range of 75 to 100 mg/kg.
`NCC[C@H](O)C(=O)N[C@@H]1C[C@H](N)[C@@H](O[C@H]2O[C@H](CN)[C@@H](O)[C@H](O)[C@H]2O)[C@H](O)[C@H]1O[C@H]1O[C@H](CO)[C@@H](O)[C@H](N)[C@H]1O` [Amikacin, amikacin, reference compound]: the MIC90 in the data set with A. baumanii 195N (a) is above 64 µg/mL; in the data set on A. baumanii 48F, above 64 µg/mL; with P. stuartii B8-1, above 64 µg/mL; in the data set on A. baumanii ATCC 19606 it was 16 µg/mL; with E. coli C1181, 4 µg/mL; with E. coli C1162 it was 4 µg/mL. Besides, the MIC90 in the data set on P. aeruginosa PAO1 and with M. morgannii S49 was 4 µg/mL throughout.
